# Source: patent US20030203963A1, “Antimicrobial agent” (priority 2001, published 2003)
# Experiments:
# [1] = system: Salm Typhimurium S29; assay: Test in cooked minced chicken slurry; type: cell-based, Salmonella Typhimurium; conditions: for Total inhibition for: minced chicken slurry at 8° C., pH 6.42, TCC010704
# Protocol: (§1) 1 kg of minced chicken (mainly lean meat) was purchased from the local butcher. This was mixed with 1 litre of BHI, mixed and dispensed as 100 g samples prior to autoclaving. When still warm, the meat was re-mixed thoroughly. When cooked, the meat was inoculated with 1 ml of 10^5 spores or cells (from an overnight broth), and re-mixed. The samples were then divided into 3×25 g portions, to which 0.5 ml of filter-sterilised APP20010215 was added (as 5% or 10% stock solutions) or water. An initial viable count was taken, and the samples then incubated at 8° C. and tested twice weekly. The pH of the chicken slurry was 6.42.
# [2] = system: Salm Typhimurium S29; assay: Test in cooked minced beef slurry; type: cell-based, Salmonella Typhimurium
# Protocol: (§2) 1 kg of minced beef, purchased from the local butcher, was mixed with 1 litre of BHI. 200 g portion of this meat slurry was autoclaved. When the meat had cooled, the pH was recorded (pH 6.24), and each pot was inoculated with 2.0 ml of 10^5 spores or cells and the meat re-mixed thoroughly. Each inoculated 200 g pot was distributed as 3×50 g portions. To each pot 1 ml of SDW, 5% or 10% APP (Batch No. APP20010215) was added, and the meat was again mixed thoroughly. An initial viable count was performed, the meat was incubated at 8° C. and sampled twice weekly. The pH of the cooked minced beef slurry was 6.24.
# [3] = system: TAVC; assay: Uninoculated test in raw meat; type: cell-based; conditions: 2000 ppm APP; for Viable counts: raw meat at 8° C.
# Protocol: […] of raw minced beef was purchased from the local butcher. 10 g of either a 2% (20,000 ppm) stock solution of APP2001213 or water was added, and the meat mixed thoroughly. Initial counts were carried out, and then the meat was incubated at 8° C. and sampled for 3 consecutive days. The pH of the raw meat was 5.3.
# [4] = system: B. cereus 204; assay: Bioscreen growth inhibition test; type: cell-based, Bacillus cereus; conditions: BS010411, 24 h at 30° C.
# Protocol: (§3) For broth cultures and Bioscreen testing most bacteria were grown in Brain Heart Infusion (BHI, Oxoid, pH 7.4). Lactobacillus sake A10 was grown in de Man, Rogosa, Sharpe medium ([…], Oxoid). Yeasts were grown in Sabouraud Liquid medium (SLM, Oxoid). Most bacteria were cultured at 30° C. Lactic acid bacteria were grown on solid medium in enriched CO2 atmosphere. Clostridium species were grown in Reinforced Clostridial Medium (RCM) at 37° C. anaerobically. Brochothrix thermosphacta fungi and yeasts were grown at 25° C. Fungi were cultured on Malt Extract Agar (MEA, Oxoid).
# (§4) An automated Microbiology Reader Bioscreen C was used to measure growth curves of the strains in the presence and absence of APP. The Bioscreen C measures the development of turbidity (i.e. growth) kinetically by vertical photometry in 200 wells of a honeycomb microtitre plate, simultaneously. The system consists of a Bioscreen C analyser, which is an incubator and measurement unit, integrated with a PC, software (BioLink v 5.30), printer and a ‘Honeycomb 2’ cuvette multiwell plate. Growth curve data can be analysed within the BioLink software or exported to programs such as Excel.
# (§5) Broth culture media were dispensed in 270 μl volumes into the wells as directed. Serial dilutions of a filter-sterilised APP stock solution were then dispensed into the same wells, as appropriate. The wells were inoculated with 30 μl of an appropriately diluted overnight broth culture or spore suspension, to give a final inoculum level of […]. The tests were incubated in the Bioscreen C for either 24 h at 30° C., or 72 h at 25° C. (depending on the micro-organism under investigation) with readings taken every 20 minutes after the trays were shaken. After the incubation period was complete the data were exported to Excel for analysis.
# [5] = system: Br. thermosphacta CRA78884; assay: Test in cooked sausage meat slurry; type: cell-based, Brochothrix thermosphacta; conditions: 500 ppm; cooked sausage meat slurry at 8° C., pH 6.2, TSM010605
# Source text: 500 g of bologna sausage meat mixture was mixed with 500 g Brain Heart Infusion broth (BHIB) to make a homogeneous slurry. The bologna sausage meat mix comprised (g per kg): lean beef 320; lean pork 202; lard 250; water 40; glucose 5; starch 155; spice mix 3.75; sodium glutamate 0.5; sodium erythorbate 0.545; sodium di-phosphate 3; NaCl 20; sodium nitrite 0.15. 200 g samples of the meat slurry were autoclaved. While the meat was still warm it was re-mixed thoroughly. When the meat had cooled it was inoculated with 2 ml of 10^5 cfu/ml spore or cell suspension, and re-mixed again. […] The meat slurry was again shaken thoroughly to ensure even mixing, an initial viable count was taken and the samples incubated at 8° C. Samples were taken at twice-weekly intervals. The pH of the sausage meat slurry was 6.2.
# [6] = system: Br. thermosphacta CRA78883; assay: Test in cooked minced beef slurry; type: cell-based, Brochothrix thermosphacta; conditions: 2000 ppm; minced beef slurry at 8° C., pH 6.24, TCM010619
# Protocol: as §2
# [7] = system: L. monocytogenes 272; assay: Bioscreen growth inhibition test; type: cell-based, Listeria monocytogenes; conditions: BS010411, 24 h at 30° C.
# Protocol: as §3, §4, §5
# [8] = system: L. monocyt. Scott A; assay: Bioscreen growth inhibition test; type: cell-based, Listeria monocytogenes; conditions: BS010510, 24 h at 30° C., APP20010213
# Protocol: as §3, §4, §5
# [9] = system: L. monocytogenes S23; assay: Bioscreen growth inhibition test; type: cell-based, Listeria monocytogenes; conditions: BS010411, 24 h at 30° C.
# Protocol: as §3, §4, §5
# [10] = system: L. monocytogenes 358; assay: Bioscreen growth inhibition test; type: cell-based, Listeria monocytogenes; conditions: BS010510, 24 h at 30° C., APP20010213
# Protocol: as §3, §4, §5
# [11] = system: L. monocyt. F6861; assay: Bioscreen growth inhibition test; type: cell-based, Listeria monocytogenes; conditions: BS010510, 24 h at 30° C., APP20010213
# Protocol: as §3, §4, §5
# [12] = system: Ps. fluorescens 327; assay: Test in cooked minced chicken slurry; type: cell-based, Pseudomonas fluorescens; conditions: 2000 ppm, minced chicken slurry at 8° C.
# Protocol: as §1
smiles,measurement,setting,value
"O=C1CC(CO)OC=C1O (stereo not shown) [APP, Ascopyrone P]",Total inhibition for,[1]; 1000 ppm,Total inhibition by 1000 ppm for 25 d
same,Total inhibition for,[1]; 2000 ppm,Total inhibition by 2000 ppm for >40 d
same,Total inhibition (effect on growth of target organism by 2000 ppm APP),[1]; Cooked minced chicken slurry at 8° C. pH 6.42,S. Typhimurium
same,Total inhibition for,"[2]; 2000 ppm, minced beef slurry at 8° C., pH 6.24, TCM010619",Total inhibition by 2000 ppm for >44 d
same,Total inhibition (effect on growth of target organism by 2000 ppm APP),[2]; Cooked minced beef slurry at 8° C. pH 6.24,S. Typhimurium
same,Viable counts,"[3]; day 0, TRM010521",9.3 × 10^6 cfu/g
same,Viable counts,"[3]; day 1, TRM010521",2.2 × 10^8 cfu/g
same,Viable counts,"[3]; day 2, TRM010521",1.5 × 10^8 cfu/g
same,Viable counts,"[3]; day 3, TRM010521",5.0 × 10^8 cfu/g
same,Counts in control and APP samples,"[3]; uninoculated raw meat at 8° C., pH 5.3",identical
same,APP level causing significant inhibition,[4]; APP20010213,4000 ppm
same,APP level causing total inhibition,[4]; APP20010213,>4000 ppm
same,APP level causing significant inhibition,[4]; APP20010215,2000 ppm
same,APP level causing total inhibition,[4]; APP20010215,4000 ppm
same,Effect on growth,[5],No significant effect with 500 and 100 ppm
same,Effect on growth,[6],No effect with 2000 ppm
same,APP level causing significant inhibition,[7]; APP20010213,2000 ppm
same,APP level causing total inhibition,[7]; APP20010213,4000 ppm
same,APP level causing significant inhibition,[7]; APP20010215,2000 ppm
same,APP level causing total inhibition,[7]; APP20010215,>4000 ppm
same,APP level causing significant inhibition,[8],2000 ppm
same,APP level causing total inhibition,[8],3000 ppm
same,APP level causing significant inhibition,[9]; APP20010213,2000 ppm
same,APP level causing total inhibition,[9]; APP20010213,4000 ppm
same,APP level causing significant inhibition,[9]; APP20010215,1000 ppm
same,APP level causing total inhibition,[9]; APP20010215,4000 ppm
same,APP level causing total inhibition,[10],3000 ppm
same,APP level causing significant inhibition,[11],2000 ppm
same,APP level causing total inhibition,[11],3000 ppm
same,10^6 reached at,"[12]; TCC010704, controls 3 d",10 d
same,Effect on growth,"[12]; pH 6.42, TCC010704",No total inhibition
